Legend:
Format in all cases: cell-based
[1] = molecular target: T1, B1 bradykinin receptor (Homo sapiens) (UniProt P46663); test: Displacement of [3H][…] from human recombinant bradykinin B1 receptor expressed in CHO cells at 50 uM measured after 1 hr relative to control
T1 sequence (whole entry): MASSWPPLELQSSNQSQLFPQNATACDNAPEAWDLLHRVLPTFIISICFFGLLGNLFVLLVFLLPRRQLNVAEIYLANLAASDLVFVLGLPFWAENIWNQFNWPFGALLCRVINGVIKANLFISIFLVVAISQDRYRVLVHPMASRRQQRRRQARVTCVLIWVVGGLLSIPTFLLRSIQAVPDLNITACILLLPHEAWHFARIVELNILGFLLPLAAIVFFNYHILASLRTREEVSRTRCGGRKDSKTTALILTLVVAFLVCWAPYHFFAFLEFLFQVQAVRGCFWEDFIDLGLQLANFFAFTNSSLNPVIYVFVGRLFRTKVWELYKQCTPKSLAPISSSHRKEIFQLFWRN

[2] = molecular target: T2, B2 bradykinin receptor (Homo sapiens) (UniProt P30411); test: Displacement of [3H]bradykinin from human recombinant bradykinin B2 receptor expressed in CHO cells at 50 uM measured after 1 hr relative to control
T2 sequence (whole entry): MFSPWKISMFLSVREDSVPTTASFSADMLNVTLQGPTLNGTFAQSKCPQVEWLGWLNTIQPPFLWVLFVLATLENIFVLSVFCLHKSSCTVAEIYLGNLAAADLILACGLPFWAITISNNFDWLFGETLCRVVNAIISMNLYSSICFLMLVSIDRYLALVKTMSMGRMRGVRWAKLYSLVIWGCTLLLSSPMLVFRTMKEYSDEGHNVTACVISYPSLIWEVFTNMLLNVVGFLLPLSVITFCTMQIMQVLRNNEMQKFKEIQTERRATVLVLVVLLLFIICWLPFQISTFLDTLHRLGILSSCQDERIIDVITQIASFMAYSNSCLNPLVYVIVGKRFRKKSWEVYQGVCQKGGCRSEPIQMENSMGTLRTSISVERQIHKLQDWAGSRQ

[3] = molecular target: T1, B1 bradykinin receptor (Homo sapiens); test: Displacement of [3H][…] from human recombinant bradykinin B1 receptor expressed in CHO cells at 10 uM measured after 1 hr relative to control
[4] = molecular target: T2, B2 bradykinin receptor (Homo sapiens); test: Displacement of [3H]bradykinin from human recombinant bradykinin B2 receptor expressed in CHO cells at 10 uM measured after 1 hr relative to control

Compound | inhibition [1] [%] | inhibition [2] [%] | inhibition [3] [%] | inhibition [4] [%]
COc1cc(NCCCCCCC2CCCCN2)c2ncccc2c1 (configuration not stated) | 31 | 36 | – | –
COc1cc(NC(C)CCCN)c2nc(C)ccc2c1OC1CCC(F)CC1 (configuration not stated) | 12 | 45 | – | –
Cc1ccc(NC2=NC(=O)/C(=C/c3ccc(-c4ccc(C(=O)O)cc4)o3)S2)cc1Cl | – | – | 14 | 33
CC1CCC(N2NC(=O)/C(=C\c3cccn3-c3ccc(S(N)(=O)=O)cc3)C2=O)CC1Cl (configuration not stated) | – | 41 | 31 | –
COc1cc(NCCCCCCCC2CCCCN2)c2ncccc2c1 (configuration not stated) | 46 | 65 | – | –
CC1=C(C#N)C(=O)N(CCc2c[nH]c3ccccc23)C(=O)/C1=C\Nc1ccc(S(N)(=O)=O)cc1 | – | – | 32 | 34
